Tests used:
human TLR7 = human TLR7 (Homo sapiens (Human), UniProt Q9NYK1); experiment: HEK-Blue-hTLR7 cells assay (SEAP reporter); format: cell-based; conditions: 20 hrs, read-out: HEK-Blue-hTLR7 (EC50 (μM))
How it was run: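 HEK-Blue cells stably carrying human TLR7 and an NF-κB-driven SEAP reporter, preincubated 24 h, then exposed to serially diluted compound (1% DMSO final) for 20 h at 37 °C. Supernatant SEAP measured with QUANTI-Blue substrate, 2 h at 37 °C, absorbance read at 620–655 nm.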

[1] = GSH adduct screening assay; format: in vitro ADME, rat and human; set-up: key: No flag: No Flag: no GSH adduct formation observed when compared to control (DMSO); conditions: 20 μM, RLM and HLM, 60 minutes
Method: The formation of reactive metabolites is an unwanted drug property because of the idiosyncratic clinical adverse effect. GSH adduct formation is used to evaluate the formation of reactive metabolites in vitro. Positive controls were Diclofenac, Troglitazone, Nefazodone and mGluR5. Solvent control was DMSO.
All compounds including positive and solvent control were incubated using a 96-deep-well plate (Eppendorf) at 20 μM (addition of 1 μL of 10 mM DMSO stock solution) in 450 μL of 0.1 M sodium phosphate buffer at pH 7.4 containing rat liver microsomes (RLM) and human liver microsomes (HLM). Microsomal protein concentration is 1 mg/mL. Pipetting was performed using a TECAN pipetting robot. The buffer was prepared at room temperature by combining 2.62 g NaH2PO4.1H2O and 14.43 g Na2HPO4.2H2O dissolved in H2O (Millipore, >18 MΩ) to a weight of 1000 g (pH 7.4). After 5 minutes of pre-incubation at 37° C. the reaction was started by adding 50 μL of buffer containing GSH (100 mM) and NADPH (20 mM). Fresh stock solutions of GSH and NADPH were prepared straight before each experiment. The final concentrations were […] for GSH and 1 mM for NADPH. After 60 minutes of incubation at 37° C. (shaking at 800 rpm) the reaction is quenched with 500 μL of cold acetonitrile and centrifuged at 5000×g at 25° C. for 11 minutes. Before LC-MS/MS analysis the supernatant was split to two fractions, 450 μL and 400 each followed by evaporation using a N2 stream at 35° C. to a volume of approximately […].
Sample clean-up and chromatography of analytes were performed on-line by a column-switching set-up of two HPLC columns. From each sample 50 μL were injected (Shimadzu SilHTC) and loaded with water containing 0.1% formic acid onto a trapping column (Waters Oasis HLB 2.1×10 mm, 25 μm) with a flow rate of 0.3 mL/min. After 1.5 min the trapped analytes were then flushed (included a change in flow direction on the trapping column) onto an analytical column (Waters Atlantis T3 2.1×100 mm, 3 μm) with a total flow of 0.2 mL/min starting with 95/5% water containing 0.1% formic acid/acetonitrile. The fraction of acetonitrile was increased to 20% acetonitrile between 2 and 2.5 minutes, to 70% at 10 minutes and to 98% at 11 minutes. After 12 minutes the analytical column was equilibrated to start conditions (5% acetonitrile). […] The total running time was 14 min per sample.
A triple quadrupole-linear ion trap mass spectrometer 4000 Qtrap equipped with an electrospray ionization source (Turbo V) was used, both from Applied Biosystems/MDS Sciex. Based on a published method of Dieckhaus et al. (2005) a precursor ion survey scan (PreIS) method was used to detect GSH-conjugates in negative ion mode. Briefly, as survey scan ions (400 to 900 amu within 2 seconds) are scanned for precursors of m/z 272 amu, the ion spray voltage was −4200 V, the source temperature 500° C., nitrogen was used as curtain and collision gas. If the parent molecule exceeds a molecular mass of 500 the scan range was changed to 500 amu to 1000 amu within 2 seconds. For signals in the survey scan exceeding 7500 cts (that was approximately 5 times of the background signal), enhanced resolution scan and enhanced product ion scan were triggered which allowed isotope determination and confirmation of a positive GSH adduct by the presence of diagnostic fragment ions. Further instrument settings were as following: Curtain gas: 30 psi, CAD gas: 10 psi Gas 1: 30 psi, Gas 2: 50 psi, declustering potential: −70 V, entrance potential: −10 V, collision energy: −24 V, and cell exit potential −15 V. Data acquisition was performed using Analyst 1.4.2, data analysis, i.e. sample control (solvent) comparisons were performed with Metabolite ID 1.3 (Applied Biosystems/MDS Sciex). (reference: Dieckhaus, C. M., Fernandez-Metzler, C. L., King, R., Krolikowski, P. H., and Baillie, T. A. (2005). Negative ion tandem mass spectrometry for the detection of glutathione conjugates. Chem Res Toxicol 18, 630-638).

Sequence of human TLR7 (Q9NYK1 27-1049): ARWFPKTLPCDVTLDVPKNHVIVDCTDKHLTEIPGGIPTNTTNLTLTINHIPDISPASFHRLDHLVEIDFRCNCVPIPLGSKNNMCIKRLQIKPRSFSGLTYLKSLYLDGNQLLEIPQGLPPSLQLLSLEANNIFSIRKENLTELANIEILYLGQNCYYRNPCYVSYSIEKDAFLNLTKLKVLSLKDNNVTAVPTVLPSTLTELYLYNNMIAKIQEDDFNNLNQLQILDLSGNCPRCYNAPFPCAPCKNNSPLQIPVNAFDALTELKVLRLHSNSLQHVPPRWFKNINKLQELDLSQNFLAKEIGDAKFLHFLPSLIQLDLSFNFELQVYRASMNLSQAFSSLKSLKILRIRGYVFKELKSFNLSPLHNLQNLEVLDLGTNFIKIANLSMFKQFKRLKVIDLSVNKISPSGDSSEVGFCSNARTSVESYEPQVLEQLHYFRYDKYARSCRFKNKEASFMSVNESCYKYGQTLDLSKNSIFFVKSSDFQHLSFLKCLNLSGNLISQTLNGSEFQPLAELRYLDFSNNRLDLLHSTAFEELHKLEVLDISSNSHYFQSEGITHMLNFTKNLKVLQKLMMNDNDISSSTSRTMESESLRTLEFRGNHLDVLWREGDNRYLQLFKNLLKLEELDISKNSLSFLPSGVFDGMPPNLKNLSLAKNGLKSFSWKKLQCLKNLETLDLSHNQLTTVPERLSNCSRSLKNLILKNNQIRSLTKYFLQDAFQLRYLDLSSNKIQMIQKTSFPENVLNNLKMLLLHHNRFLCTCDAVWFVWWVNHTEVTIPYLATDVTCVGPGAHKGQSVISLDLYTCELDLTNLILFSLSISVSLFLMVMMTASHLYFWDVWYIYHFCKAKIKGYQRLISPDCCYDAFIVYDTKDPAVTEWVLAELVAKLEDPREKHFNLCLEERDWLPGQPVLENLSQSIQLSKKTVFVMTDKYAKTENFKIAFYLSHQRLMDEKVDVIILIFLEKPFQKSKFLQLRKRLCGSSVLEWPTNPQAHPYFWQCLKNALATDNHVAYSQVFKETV

SMILES	EC50 (human TLR7) [µM]	GSH results [1]
CCCS(=N)(=O)c1nc(N)c2[nH]c(=O)n(Cc3ccccc3)c2n1 (single isomer, unassigned) [Example 4-A, 6-Amino-9-benzyl-2-(propylsulfonimidoyl)-7H-purin-8-one]	0.067	No flag
CCCS(=N)(=O)c1nc(N)c2[nH]c(=O)n(Cc3ccccc3)c2n1 (single isomer, unassigned) [Example 4-B, 6-Amino-9-benzyl-2-(propylsulfonimidoyl)-7H-purin-8-one]	–	No flag
CCCS(=N)(=O)c1nc(N)c2[nH]c(=O)n(Cc3ccc(C)cc3)c2n1 (single isomer, unassigned) [Example 29-A, 6-Amino-2-(propylsulfonimidoyl)-9-(p-tolylmethyl)-7H-purin-8-one]	–	No flag
CCS(=N)(=O)c1nc(N)c2[nH]c(=O)n(Cc3ccc(Cl)cc3)c2n1 (single isomer, unassigned) [Example 70-A, 6-Amino-9-[(4-chlorophenyl)methyl]-2-(ethylsulfonimidoyl)-7H-purin-8-one]	–	No flag
CCS(=N)(=O)c1nc(N)c2[nH]c(=O)n(Cc3ccc(Cl)cc3)c2n1 (single isomer, unassigned) [Example 70-B, 6-Amino-9-[(4-chlorophenyl)methyl]-2-(ethylsulfonimidoyl)-7H-purin-8-one]	–	No flag
CCS(=N)(=O)c1nc(N)c2[nH]c(=O)n(Cc3ccc(C)cc3)c2n1 (single isomer, unassigned) [Example 71-A, 6-Amino-2-(ethylsulfonimidoyl)-9-(p-tolylmethyl)-7H-purin-8-one]	–	No flag
CCCS(=N)(=O)c1nc(N)c2[nH]c(=O)n(Cc3ccccc3)c2n1 (centres unmarked) [Example 4, 6-Amino-9-benzyl-2-(propylsulfonimidoyl)-7H-purin-8-one]	0.065	No flag
CCCS(=N)(=O)c1nc(N)c2[nH]c(=O)n(Cc3ccc(Cl)cc3)c2n1 (centres unmarked) [Example 9, 6-Amino-9-[(4-chlorophenyl)methyl]-2-(propylsulfonimidoyl)-7H-purin-8-one]	0.012	No flag
CCCS(=N)(=O)c1nc(N)c2[nH]c(=O)n(Cc3ccc(F)c(F)c3)c2n1 (centres unmarked) [Example 27, 6-Amino-9-(3,4-difluorophenylmethyl)-2-(propylsulfonimidoyl)-7H-purin-8-one]	0.036	No flag
CCCS(=N)(=O)c1nc(N)c2[nH]c(=O)n(Cc3ccc(C)nc3)c2n1 (centres unmarked) [Example 34, 6-Amino-9-[(6-methyl-3-pyridyl)methyl]-2-(propylsulfonimidoyl)-7H-purin-8-one]	0.03	No flag
CCCS(=N)(=O)c1nc(N)c2[nH]c(=O)n(Cc3ccc(C(=O)O)cc3)c2n1 (centres unmarked) [Example 39, 4-[[6-Amino-8-oxo-2-(propylsulfonimidoyl)-7H-purin-9-yl]methyl]benzoic acid]	0.17	No flag

Source: patent US9708325B2, “Sulfonimidoylpurinone compounds and derivatives for the treatment and prophylaxis of virus infection” (Hoffmann-La Roche Inc., priority 2015, dated 2017)
